Article PMC11750938, “Self-sufficient biocatalytic cascade for the continuous synthesis of danshensu in flow” (Applied Microbiology and Biotechnology, 2025)

Target: T1, MpHPPR (hydroxyphenylpyruvate reductase from Mentha x piperita) (Mentha x piperita, UniProt A0A2R4SEK0)
T1 construct: codon-optimised synthetic gene in pET15b, N-terminal His-tag, expressed in E. coli BL21(DE3) Star, Ni-NTA purified, dimer
T1 sequence (A0A2R4SEK0 1-313): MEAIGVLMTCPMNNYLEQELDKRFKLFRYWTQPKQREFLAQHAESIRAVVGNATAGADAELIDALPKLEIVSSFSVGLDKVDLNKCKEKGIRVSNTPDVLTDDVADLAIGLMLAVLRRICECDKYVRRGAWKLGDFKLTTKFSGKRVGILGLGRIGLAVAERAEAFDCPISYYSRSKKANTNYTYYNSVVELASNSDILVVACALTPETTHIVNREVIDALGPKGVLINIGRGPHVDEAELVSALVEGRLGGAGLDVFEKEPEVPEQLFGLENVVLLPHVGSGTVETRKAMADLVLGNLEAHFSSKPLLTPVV
Assay: HPLC product quantification
Assay type: biochemical
Details: pH 7.0, 100 mM potassium phosphate, 37 °C, 10 mM NAD(P)H, 5 mM ß-mercaptoethanol

SMILES	KM
O=C(O)C(=O)Cc1ccccc1 [PPA, phenylpyruvic acid]	Specific activity and KM for phenylpyruvic acid (PPA)
O=C(O)C(=O)Cc1ccc(O)cc1 [HPPA, 3-(4-Hydroxyphenyl)−2-oxopropanoic acid]	Specific activity and KM for phenylpyruvic acid (PPA), 4-hydroxyphenylpyruvic acid (HPPA)
